# PubChem BioAssay AID1963840 (Molecular Pharmacology Branch, DTP, NCI, 2024)
# Tested on: 695427-040-R-J1-PDC complex spheroid viability
# Assay: Anticancer human tumor 695427-040-R-J1-PDC patient-derived colon adenocarcinoma cell line growth inhibition [POLQ]
# Conditions: for IC50: curve of first compound; for viability, T/C: stronger effect = lower value
# How it was run: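 Three-cell-type spheroids modelling solid tumor plus stroma served as the readout system; POL inhibitors were tested individually and in combination, concentration ranges set by clinical Cmax where known.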
# [1] = second compound 0.0316 µM, first compound 0.0316 µM
# [2] = second compound 0.0316 µM, first compound 0.1 µM
# [3] = second compound 0.0316 µM, first compound 0.316 µM
# [4] = second compound 0.0316 µM, first compound 1 µM
# [5] = second compound 0.0316 µM, first compound 3.16 µM
# [6] = second compound 0.0316 µM, first compound 10 µM
# [7] = second compound 0.1 µM, first compound 0.0316 µM
# [8] = second compound 0.1 µM, first compound 0.1 µM
# [9] = second compound 0.1 µM, first compound 0.316 µM
# [10] = second compound 0.1 µM, first compound 1 µM
# [11] = second compound 0.1 µM, first compound 3.16 µM
# [12] = second compound 0.1 µM, first compound 10 µM
# [13] = second compound 0.316 µM, first compound 0.0316 µM
# [14] = second compound 0.316 µM, first compound 0.1 µM
# [15] = second compound 0.316 µM, first compound 0.316 µM
# [16] = second compound 0.316 µM, first compound 1 µM
# [17] = second compound 0.316 µM, first compound 3.16 µM
# [18] = second compound 0.316 µM, first compound 10 µM
# [19] = second compound 1 µM, first compound 0.0316 µM
# [20] = second compound 1 µM, first compound 0.1 µM
# [21] = second compound 1 µM, first compound 0.316 µM
# [22] = second compound 1 µM, first compound 1 µM
# [23] = second compound 1 µM, first compound 3.16 µM
# [24] = second compound 1 µM, first compound 10 µM
# [25] = second compound 3.16 µM, first compound 0.0316 µM
# [26] = second compound 3.16 µM, first compound 0.1 µM
# [27] = second compound 3.16 µM, first compound 0.316 µM
# [28] = second compound 3.16 µM, first compound 1 µM
# [29] = second compound 3.16 µM, first compound 3.16 µM
# [30] = second compound 3.16 µM, first compound 10 µM
# [31] = second compound 10 µM, first compound 0.0316 µM
# [32] = second compound 10 µM, first compound 0.1 µM
# [33] = second compound 10 µM, first compound 0.316 µM
# [34] = second compound 10 µM, first compound 1 µM
# [35] = second compound 10 µM, first compound 3.16 µM
# [36] = second compound 10 µM, first compound 10 µM
# 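Also: spheroids exposed to compounds for seven days.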
# 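For viability, T/C in this document: 100% = DMSO vehicle control viability.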
structure (smiles),measurement,setting,value
CC1COCCN1c1cc(-c2ccnn2C)c2ccnc(-c3ccn[nH]3)c2n1 (stereo not drawn) + Nc1ccc(C#CCN(C(=O)Cc2ncc(C(F)(F)F)cc2C(F)(F)F)c2ccc(F)cc2)nn1,IC50,second compound 0.0316 µM,> 10 µM
same,IC50,second compound 0.1 µM,> 10 µM
same,IC50,second compound 0.316 µM,> 10 µM
same,IC50,second compound 1 µM,> 10 µM
same,IC50,second compound 3.16 µM,> 10 µM
same,IC50,second compound 10 µM,> 10 µM
same,"viability, T/C",[1],92.9%
same,"viability, T/C",[2],91.8%
same,"viability, T/C",[3],72.9%
same,"viability, T/C",[4],66.8%
same,"viability, T/C",[5],61.6%
same,"viability, T/C",[6],56.3%
same,"viability, T/C",[7],117%
same,"viability, T/C",[8],89.1%
same,"viability, T/C",[9],74.3%
same,"viability, T/C",[10],66.3%
same,"viability, T/C",[11],61.7%
same,"viability, T/C",[12],56.2%
same,"viability, T/C",[13],105%
same,"viability, T/C",[14],92.7%
same,"viability, T/C",[15],71%
same,"viability, T/C",[16],62.5%
same,"viability, T/C",[17],65%
same,"viability, T/C",[18],56.9%
same,"viability, T/C",[19],108%
same,"viability, T/C",[20],83.5%
same,"viability, T/C",[21],73.6%
same,"viability, T/C",[22],65.6%
same,"viability, T/C",[23],59.7%
same,"viability, T/C",[24],51.4%
same,"viability, T/C",[25],102%
same,"viability, T/C",[26],84.3%
same,"viability, T/C",[27],70.3%
same,"viability, T/C",[28],61.1%
same,"viability, T/C",[29],61.8%
same,"viability, T/C",[30],52.2%
same,"viability, T/C",[31],92%
same,"viability, T/C",[32],80.3%
same,"viability, T/C",[33],64.2%
same,"viability, T/C",[34],57.8%
same,"viability, T/C",[35],58.5%
same,"viability, T/C",[36],58%
CC1COCCN1c1cc(C2(S(C)(=N)=O)CC2)nc(-c2ccnc3[nH]ccc23)n1 (stereo not drawn) + Nc1ccc(C#CCN(C(=O)Cc2ncc(C(F)(F)F)cc2C(F)(F)F)c2ccc(F)cc2)nn1,IC50,second compound 0.0316 µM,> 10 µM
same,IC50,second compound 0.1 µM,> 10 µM
same,IC50,second compound 0.316 µM,> 10 µM
same,IC50,second compound 1 µM,> 10 µM
same,IC50,second compound 3.16 µM,> 10 µM
same,IC50,second compound 10 µM,> 10 µM
same,"viability, T/C",[1],110%
same,"viability, T/C",[2],103%
same,"viability, T/C",[3],99.4%
same,"viability, T/C",[4],106%
same,"viability, T/C",[5],99.6%
same,"viability, T/C",[6],96.2%
same,"viability, T/C",[7],108%
same,"viability, T/C",[8],100%
same,"viability, T/C",[9],97.4%
same,"viability, T/C",[10],98.1%
same,"viability, T/C",[11],112%
same,"viability, T/C",[12],94.5%
same,"viability, T/C",[13],96.8%
same,"viability, T/C",[14],104%
same,"viability, T/C",[15],93.9%
same,"viability, T/C",[16],104%
same,"viability, T/C",[17],99.9%
same,"viability, T/C",[18],82.2%
same,"viability, T/C",[19],102%
same,"viability, T/C",[20],101%
same,"viability, T/C",[21],102%
same,"viability, T/C",[22],102%
same,"viability, T/C",[23],102%
same,"viability, T/C",[24],86.6%
same,"viability, T/C",[25],100%
same,"viability, T/C",[26],95.1%
same,"viability, T/C",[27],99.3%
same,"viability, T/C",[28],101%
same,"viability, T/C",[29],95.4%
same,"viability, T/C",[30],88.2%
same,"viability, T/C",[31],104%
same,"viability, T/C",[32],97.9%
same,"viability, T/C",[33],95%
same,"viability, T/C",[34],96.7%
same,"viability, T/C",[35],91.6%
same,"viability, T/C",[36],74.9%
COc1ccc([C@@H](O)c2cc(-c3ncnc4cc(N5CCOCC5)ccc34)c(F)cc2Cl)nn1 + Nc1ccc(C#CCN(C(=O)Cc2ncc(C(F)(F)F)cc2C(F)(F)F)c2ccc(F)cc2)nn1,IC50,second compound 0.0316 µM,> 10 µM
same,IC50,second compound 0.1 µM,> 10 µM
same,IC50,second compound 0.316 µM,> 10 µM
same,IC50,second compound 1 µM,> 10 µM
same,IC50,second compound 3.16 µM,> 10 µM
same,IC50,second compound 10 µM,> 10 µM
same,"viability, T/C",[1],101%
same,"viability, T/C",[2],91.6%
same,"viability, T/C",[3],99.2%
same,"viability, T/C",[4],89.7%
same,"viability, T/C",[5],84.3%
same,"viability, T/C",[6],60.7%
same,"viability, T/C",[7],105%
same,"viability, T/C",[8],108%
same,"viability, T/C",[9],98.8%
same,"viability, T/C",[10],89.3%
same,"viability, T/C",[11],86.5%
same,"viability, T/C",[12],54%
same,"viability, T/C",[13],108%
same,"viability, T/C",[14],106%
same,"viability, T/C",[15],99.7%
same,"viability, T/C",[16],89.6%
same,"viability, T/C",[17],89.9%
same,"viability, T/C",[18],63.9%
same,"viability, T/C",[19],108%
same,"viability, T/C",[20],97.5%
same,"viability, T/C",[21],91.1%
same,"viability, T/C",[22],91%
same,"viability, T/C",[23],86.2%
same,"viability, T/C",[24],52.2%
same,"viability, T/C",[25],101%
same,"viability, T/C",[26],97.4%
same,"viability, T/C",[27],99.2%
same,"viability, T/C",[28],90.9%
same,"viability, T/C",[29],78.3%
same,"viability, T/C",[30],56.2%
same,"viability, T/C",[31],101%
same,"viability, T/C",[32],92.5%
same,"viability, T/C",[33],90.1%
same,"viability, T/C",[34],89.8%
same,"viability, T/C",[35],82.1%
same,"viability, T/C",[36],55.1%
Cn1ncnc1[C@H]1c2n[nH]c(=O)c3cc(F)cc(c23)N[C@@H]1c1ccc(F)cc1 + Nc1ccc(C#CCN(C(=O)Cc2ncc(C(F)(F)F)cc2C(F)(F)F)c2ccc(F)cc2)nn1,IC50,second compound 0.0316 µM,> 0.1 µM
same,IC50,second compound 0.1 µM,> 0.1 µM
same,IC50,second compound 0.316 µM,> 0.1 µM
same,IC50,second compound 1 µM,> 0.1 µM
same,IC50,second compound 3.16 µM,> 0.1 µM
same,IC50,second compound 10 µM,> 0.1 µM
same,"viability, T/C","second compound 0.0316 µM, first compound 0.000316 µM",109%
same,"viability, T/C","second compound 0.0316 µM, first compound 0.001 µM",103%
same,"viability, T/C","second compound 0.0316 µM, first compound 0.00316 µM",109%
same,"viability, T/C","second compound 0.0316 µM, first compound 0.01 µM",103%
same,"viability, T/C",[1],111%
same,"viability, T/C",[2],95.1%
same,"viability, T/C","second compound 0.1 µM, first compound 0.000316 µM",100%
same,"viability, T/C","second compound 0.1 µM, first compound 0.001 µM",122%
same,"viability, T/C","second compound 0.1 µM, first compound 0.00316 µM",109%
same,"viability, T/C","second compound 0.1 µM, first compound 0.01 µM",104%
same,"viability, T/C",[7],108%
same,"viability, T/C",[8],88.4%
same,"viability, T/C","second compound 0.316 µM, first compound 0.000316 µM",110%
same,"viability, T/C","second compound 0.316 µM, first compound 0.001 µM",109%
same,"viability, T/C","second compound 0.316 µM, first compound 0.00316 µM",88.5%
same,"viability, T/C","second compound 0.316 µM, first compound 0.01 µM",102%
same,"viability, T/C",[13],110%
same,"viability, T/C",[14],105%
same,"viability, T/C","second compound 1 µM, first compound 0.000316 µM",107%
same,"viability, T/C","second compound 1 µM, first compound 0.001 µM",102%
same,"viability, T/C","second compound 1 µM, first compound 0.00316 µM",104%
same,"viability, T/C","second compound 1 µM, first compound 0.01 µM",99.7%
same,"viability, T/C",[19],119%
same,"viability, T/C",[20],92.8%
same,"viability, T/C","second compound 3.16 µM, first compound 0.000316 µM",105%
same,"viability, T/C","second compound 3.16 µM, first compound 0.001 µM",100%
same,"viability, T/C","second compound 3.16 µM, first compound 0.00316 µM",104%
same,"viability, T/C","second compound 3.16 µM, first compound 0.01 µM",103%
same,"viability, T/C",[25],108%
same,"viability, T/C",[26],89%
same,"viability, T/C","second compound 10 µM, first compound 0.000316 µM",102%
same,"viability, T/C","second compound 10 µM, first compound 0.001 µM",90.9%
same,"viability, T/C","second compound 10 µM, first compound 0.00316 µM",99%
same,"viability, T/C","second compound 10 µM, first compound 0.01 µM",88.1%
same,"viability, T/C",[31],102%
same,"viability, T/C",[32],86.1%
